From article PMC7554145 (Journal of medicinal chemistry, 2020)
Values after ≈ are worked out from the molar mass of the structure shown. “Also recorded” adds a separate entry of the source.

Columns and labels:
[1] = system: cancer and healthy cell lines; assay: Cytotoxicity across cell-line panel; type: cell-based
[2] = system: Myocobacterium tuberculosis H37Rv, Mycobacterium avium 2285, Mycobacterium smegmatis (ATCC607); assay: Antimycobacterial activity; type: cell-based, Mycobacterium spp.
[3] = system: normal cells / cancer cells; conditions: selected solid cancer cell lines; ref [10]; cited from earlier work
[4] = mouse; ref [10],[18]; cited from earlier work
DPAGT1 [5] = conditions: ref [10]; cited from earlier work
HPNE = assay: MTT cytotoxicity assay, HPNE; type: cell-based; conditions: HPNE, 72 h, read-out: IC50 HPNE
[6] = system: MraY, WecA, AglH, and DPAGT1; assay: Phosphotransferase panel; type: biochemical; conditions: at 50 μM concentration
PD002 [7] = assay: Scratch; type: cell-based, human; conditions: PD002, 24h, 0.2 μM; untreated 63%
Snail = Snail expression; type: cell-based; conditions: 0.05 and 2.0 μM
PD002 [8] = assay: Kinetic proliferation assay; type: cell-based, human
PD002 [9] = assay: Cell migration assay using transwell; type: cell-based, human; conditions: 0.1 μM, 18h; vs tunicamycin and gemcitabine at 0.1 μM
E-Cadherin = E-Cadherin expression; type: cell-based
DPAGT1 [10] = assay: DPAGT1 protein expression; type: cell-based
SiHa = assay: Scratch; type: cell-based, human; conditions: scratch assay, 0.2 μM
DPAGT1 (Human) = DPAGT1 (Human) (Homo sapiens, UniProt Q9H3H5); assay: DPAGT1 assay; type: biochemical
Chain of DPAGT1 (Human) (Q9H3H5 whole entry): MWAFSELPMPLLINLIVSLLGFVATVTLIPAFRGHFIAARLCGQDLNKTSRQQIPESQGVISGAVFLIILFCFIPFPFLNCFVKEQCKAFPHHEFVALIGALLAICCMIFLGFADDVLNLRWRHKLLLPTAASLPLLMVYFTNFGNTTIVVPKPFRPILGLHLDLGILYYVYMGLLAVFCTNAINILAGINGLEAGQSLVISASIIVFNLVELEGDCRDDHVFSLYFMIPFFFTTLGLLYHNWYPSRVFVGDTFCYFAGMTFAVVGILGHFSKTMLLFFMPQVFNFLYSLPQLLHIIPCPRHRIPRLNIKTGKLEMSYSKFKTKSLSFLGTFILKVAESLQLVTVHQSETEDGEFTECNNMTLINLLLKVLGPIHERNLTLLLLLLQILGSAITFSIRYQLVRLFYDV

PD002 [11] = assay: Checkerboard synergy of CPPB with paclitaxel; type: cell-based, human; conditions: for CA and CB, concentration in combination: growth–no growth interface
HCT-116 = assay: Scratch; type: cell-based; conditions: scratch assay
MraY/MurX = conditions: read-out: IC50 MraY; previously identified; ref [9]; cited from earlier work
PD002 [12] = assay: MTT cytotoxicity assay, PD002; type: cell-based, human; conditions: Homo sapiens, PD002, 72 h, read-out: IC50 PD002

What does the source list for `CO[C@@H]1[C@H](O)[C@@H]([C@@H](O[C@H]2OC(C(=O)NCc3ccc(N4CCC(Oc5ccc(OC(F)(F)F)cc5)CC4)cc3)=C[C@H](O)[C@@H]2O)C(N)=O)O[C@H]1n1ccc(=O)[nH]c1=O`?
antiproliferative activity against L1210, HPNE, and Vero ([1]; at 50 μM): did not show antiproliferative activity; growth inhibitory activity against Mycobacterium spp. ([2]; at 50 μg/mL): did not show growth inhibitory activity

With `NC[C@H]1O[C@@H](O[C@H]([C@H]2O[C@@H](n3ccc(=O)[nH]c3=O)[C@H](O)[C@@H]2O)[C@H](NCCCC(=O)NCc2ccc(N3CCC(Oc4ccc(OC(F)(F)F)cc4)CC3)cc2)C(N)=O)[C@H](O)[C@@H]1O` [APPB, Aminouridyl phenoxylpiperidinylbenzylbutanamide] as the molecule, how does the “selective cytotoxicity (IC50 normal cells / cancer cells)” value [3] read?
Its value is over 35.

What about the LD50 [4] of the same molecule?
Its LD50 is over 20 mg/kg.

What about the “DPAGT1 inhibitory activity relative to tunicamycin” value (DPAGT1 [5]) of the same molecule?
Its value is “greater than 30 times”.

With `CO[C@H]1[C@@H](O)[C@H](n2ccc(=O)[nH]c2=O)O[C@@H]1[C@@H](O[C@H]1OC(C(=O)N[C@H]2CCCCNC2=O)=C[C@H](O)[C@@H]1O)C(N)=O` [CAP, Capuramycin, reference compound] as the molecule, how does the IC50 (HPNE) read?
Its IC50 is over 50 µM.

With `CO[C@H]1[C@@H](O)[C@H](n2ccc(=O)[nH]c2=O)O[C@@H]1[C@@H](O[C@H]1OC(CNCc2ccc(N3CCC(Oc4ccc(OC(F)(F)F)cc4)CC3)cc2)=C[C@H](O)[C@@H]1O)C(N)=O` [CPPA, (2R)-2-(((2S,3S,4S)-3,4-Dihydroxy-6-(((4-(4-(4-(trifluoromethoxy)phenoxy)piperidin-1-yl)benzyl)amino)methyl)-3,4-dihydro-2H-pyran-2-yl)oxy)-2-((2S,5R)-5-(2,4-dioxo-3,4-dihydropyrimidin-1(2H)-yl)-4-hydroxy-3-methoxytetrahydrofuran-2-yl)acetamide] as the molecule, how does the “inhibition of all phosphotransferases tested in Table 1” value [6] read?
Its value is “did not inhibit”.

With `CO[C@H]1[C@@H](O)[C@H](n2ccc(=O)[nH]c2=O)O[C@@H]1[C@@H](O[C@H]1OC(C(=O)NCc2ccc(N3CCC(Oc4ccc(OC(F)(F)F)cc4)CC3)cc2)=C[C@H](O)[C@@H]1O)C(N)=O` [CPPB, (2S,3S,4S)-2-((1R)-2-Amino-1-((2S,5R)-5-(2,4-dioxo-3,4-dihydropyrimidin-1(2H)-yl)-4-hydroxy-3-methoxytetrahydrofuran-2-yl)-2-oxoethoxy)-3,4-dihydroxy-N-(4-(4-(4-(trifluoromethoxy)phenoxy)piperidin-1-yl)benzyl)-3,4-dihydro-2H-pyran-6-carboxamide] as the molecule, how does the wound-healing rate (PD002 [7]) read?
Its wound-healing rate is “approximately 20%”.

And the “viability of all pancreatic cancers tested” value ([1]; MTT assays, 20 μM)?
The value was “remained viable”.

And the “cytotoxicity against a series of cancer and healthy cell lines” value ([1]; at 10 μM or higher concentrations)?
Its value is “not cytotoxic”.

What about the “antiproliferative activity against L1210, HPNE, and Vero” value ([1]; at 50 μM) of the same molecule?
Its value is “did not show antiproliferative activity”.

What about the IC50 ([1]; read-out: IC50 growth inhibition of solid cancer cell lines (span)) of the same molecule?
The IC50 was 15 to 45 µM.

And the “Snail expression level in HCT-116” value (Snail)?
Its value is “not noticeably changed”.

And the MIC [2]?
Its MIC is 6.25 to 12.5 µg/mL (≈ 7.74 to 15.5 µM).

And the IC50 (HPNE)?
Its IC50 is over 50 µM.

What about the “phase area confluent of PD002 culture after 72h” value (PD002 [8]; CPPB 50 μM, same as time 0h, control (PBS) ca. 70%) of the same molecule?
Its value is 10–13%.

What about the “cell proliferation inhibited at time 72h” value (PD002 [8]; PD002, CPPB 0.2–20 μM) of the same molecule?
Its value is “ca. 20%”.

What about the cell permeability (PD002 [8]; demonstrated by IncuCyte live cell analyses and immunofluorescence assays) of the same molecule?
Its cell permeability is “cell-permeable”.

What about the “inhibition of cell migration of PD002 (Boyden chamber)” value (PD002 [9]) of the same molecule?
The value was “inhibited on a higher level”.

What about the “E-Cadherin expression level of PANC-1” value (E-Cadherin; Western blot, 0–2.0 μM) of the same molecule?
The value was “the same expression level”.

What about the “E-Cadherin expression levels of PD002, PANC-1, and HCT-116” value (E-Cadherin; immunofluorescence, 0.05–2.0 μM) of the same molecule?
Its value is “not changed significantly”.

And the “DPAGT1 expression in pancreatic cancer cell lines” value (DPAGT1 [10]; 0.2 μM)?
The value was “apparently inhibited”.

What about the “DPAGT1 expression levels of HCT-116 remaining” value (DPAGT1 [10]; Western blot, CPPB 0.1–20 μM) of the same molecule?
The value was 20–90%.

And the “inhibition of migration of SiHa” value (SiHa)?
Its value is “strongly inhibited migration”.

And the “DPAGT1 inhibitory activity relative to tunicamycin” value (DPAGT1 (Human))?
Its value is ~ 7.5 times.

What about the “CA and CB, concentration in combination” value (PD002 [11]; Table 3 entry 1) of the same molecule?
Its value is 0.10 µM.

What about the “CA and CB, concentration in combination” value (PD002 [11]; Table 3 entry 2) of the same molecule?
The value was 0.10 µM.

And the “CA and CB, concentration in combination” value (PD002 [11]; Table 3 entry 3)?
The value was 0.20 µM.

What about the “CA and CB, concentration in combination” value (PD002 [11]; Table 3 entry 4) of the same molecule?
Its value is 0.20 µM.

What about the “CA and CB, concentration in combination” value (PD002 [11]; Table 3 entry 5) of the same molecule?
Its value is 0.20 µM.

What about the “CA and CB, concentration in combination” value (PD002 [11]; Table 3 entry 6) of the same molecule?
The value was 2.0 µM.

And the “CA and CB, concentration in combination” value (PD002 [11]; Table 3 entry 7)?
Its value is 2.0 µM.

What about the “CA and CB, concentration in combination” value (PD002 [11]; Table 3 entry 8) of the same molecule?
The value was 2.0 µM.

What about the “synergistic effect with paclitaxel against PD002” value (PD002 [11]; checkerboard) of the same molecule?
Its value is “strong synergistic effects”.

What about the “inhibition of cell migration of HCT-116” value (HCT-116) of the same molecule?
Its value is “not inhibited; also recorded: did not inhibit migration”.

For `CO[C@@H]1[C@H](O)[C@@H]([C@@H](O[C@H]2OC(CNCc3ccc(N4CCC(Oc5ccc(OC(F)(F)F)cc5)CC4)cc3)=C[C@H](O)[C@@H]2O)C(N)=O)O[C@H]1n1ccc(=O)[nH]c1=O` [I-CPPA, (2R)-2-(((2S,3S,4S)-3,4-Dihydroxy-6-(((4-(4-(4-(trifluoromethoxy)phenoxy)piperidin-1-yl)benzyl)amino)methyl)-3,4-dihydro-2H-pyran-2-yl)oxy)-2-((2S,5R)-5-(2,4-dioxo-3,4-dihydropyrimidin-1(2H)-yl)-3-hydroxy-4-methoxytetrahydrofuran-2-yl)acetamide], which “inhibition of all phosphotransferases tested in Table 1” value [6] is on record?
The value was “did not inhibit”.

What does the source list for `CO[C@H]1[C@@H](OC)[C@H](n2ccc(=O)[nH]c2=O)O[C@@H]1[C@@H](O[C@H]1OC(C(=O)N[C@H]2CCCCNC2=O)=C[C@H](O)[C@@H]1O)C(N)=O` [OM-CAP, O-Methyl capuramycin]?
cytotoxicity against healthy cells (e.g., Vero and HPNE cells) ([1]; at 50 μM): does not show cytotoxicity; IC50 (MraY/MurX): > 50 µM; IC50 (HPNE): > 50 µM

Which results are given for `CC(=O)O[C@H]1C(=O)[C@@]2(C)[C@H]([C@H](OC(=O)c3ccccc3)[C@]3(O)C[C@H](OC(=O)[C@H](O)[C@@H](NC(=O)c4ccccc4)c4ccccc4)C(C)=C1C3(C)C)[C@]1(OC(C)=O)CO[C@@H]1C[C@@H]2O` [Paclitaxel, reference compound]?
IC50 (PD002 [12]): 1.25 µM; CA and CB, concentration in combination (PD002 [11]; Table 3 entry 1): 0.63 µM; CA and CB, concentration in combination (PD002 [11]; Table 3 entry 2): 0.16 µM; CA and CB, concentration in combination (PD002 [11]; Table 3 entry 3): 0.0049 µM; CA and CB, concentration in combination (PD002 [11]; Table 3 entry 4): 0.020 µM; CA and CB, concentration in combination (PD002 [11]; Table 3 entry 6): 0.020 µM
